Values joined by “and” are separate entries in the source; they are usually repeats but may differ in a detail not shown here. Equal values may be shown once.
Legend:
Format in all cases: binding
TACR3 = target: T1, TACR3 (Homo sapiens, UniProt P29371); experiment: NanoBRET screen HiBiT-TACR3 in HEK293; conditions: TACR3
T1 construct: purchased Promega (in-house HiBiT-GPCR construct library, NanoBRET)
T1 sequence (P29371 1-465): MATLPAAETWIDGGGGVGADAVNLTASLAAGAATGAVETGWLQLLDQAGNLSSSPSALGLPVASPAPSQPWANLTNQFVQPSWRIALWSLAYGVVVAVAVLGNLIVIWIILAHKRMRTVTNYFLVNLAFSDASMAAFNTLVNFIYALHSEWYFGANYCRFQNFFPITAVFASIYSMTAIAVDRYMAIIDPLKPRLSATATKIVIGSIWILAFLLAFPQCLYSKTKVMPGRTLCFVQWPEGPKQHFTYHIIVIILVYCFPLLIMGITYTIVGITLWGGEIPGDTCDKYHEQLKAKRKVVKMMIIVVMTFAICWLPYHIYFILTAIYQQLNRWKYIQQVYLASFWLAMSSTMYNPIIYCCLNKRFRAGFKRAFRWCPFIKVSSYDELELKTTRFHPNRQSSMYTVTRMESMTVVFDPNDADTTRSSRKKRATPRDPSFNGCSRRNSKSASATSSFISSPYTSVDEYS
Experimental: (§1) Each tracer candidate was screened across the entire library of HiBiT-GPCR constructs using NanoBRET as the detection modality. As depicted in Figure 4A, the specificity of interactions was evaluated through decrease in BRET due to competitive displacement of a bound tracer by excess parental compound. Each tracer was analyzed for binding to each HiBiT-GPCR fusion in the absence and in the presence of competing parental compound. Briefly, HEK293 cells were transfected with HiBiT-GPCR constructs diluted into promoterless DNA to reduce expression and maximize translocation to the cell surface. Each tracer candidate was then screened at concentrations of 1 μM and 0.1 μM across cells expressing these fusions. Cells were treated for 1.5 h with tracer either alone or in the presence of 20 μM competing parental compound (i.e., control). BRET was measured upon addition of purified LgBiT and subsequent complementation with HiBiT genetically fused to a GPCR. The specificity of interactions was assessed through a decrease in BRET signal due to competitive displacement of the bound tracer. To further gauge the robustness of these interactions, the fold response over the control (i.e., BRETtracer/BRETcontrol) was calculated. We chose a 1.5-fold response, which translates to ≥7-fold signal over noise as the minimal threshold required to score an interaction as positive. […]. Below we highlight the screening results obtained for our exemplary fluorescent tracers based on Clozapine, Amitriptyline and AZD1283.
(§2) HiBiT-GPCR DNA constructs were diluted in 10 mM Tris pH 8 to a final concentration of 0.01 μg/μL, arrayed in 96-well plates and stored at −20 °C. For transfection, HEK293 cells were suspended in Opti-MEM (without phenol red) supplemented with 2% fetal bovine serum (Seradigm) and 100 units/mL penicillin–streptomycin (Gibco) at a final concentration of 220,000 cells/mL and dispensed into white 96-well plates at 90 μL/well. Subsequent transfections and screens were carried using an Agilent Bravo Automated Liquid Handling Platform. First, the 96-well HiBiT DNA arrays were diluted 25-fold in Opti-MEM (without serum or phenol red) to a final concentration of 0.0004 μg/μL and 20 μL of the diluted DNAs were transferred into new 96-well plates. Next, promoterless carrier DNA (1 μg/μL) was diluted 25-fold (0.04 μg/μL) and then dispensed into the diluted arrays at 20 μL/well. Following brief mixing, Viafect transfection reagent (Promega) diluted 16-fold into Opti-MEM was dispensed into the plates at 40 μL/well. After mixing by pipetting, plates were incubated for 10 min on the pipetting station deck. The DNA-transfection reagent complexes were then added to plates containing cells. To facilitate the screen, 10 μL of DNA-transfection reagent complexes were added in duplicates to the top 4 and bottom 4 rows, resulting in two identical 48-well arrays per plate. Plates with transfected cells were incubated for 18–20 h at 37 °C/5% CO2. A screen of each tracer across the entire library using two different concentrations requires duplicate plates of transfected cells. Depending on the number of tracers being screened, transfections can be scaled up using the same ratios. The next day, for each tracer, four 20× screening solutions in tracer dilution buffer (Promega) were prepared: two duplicates at final concentration of 20 μM and two duplicates at a final concentration of 2 μM. A competing unmodified compound was added to one of each duplicate at a final concentration of 400 μM. The four resulting solutions were diluted 4-fold in Opti-MEM without serum or phenol red to generate 5× solutions (5 µM and 0.5 µM tracer +/− 100 μM competing compound). To screen the library, a BioTek MultiFlo FX liquid dispenser was used to dispense 22.5 µL of tracer solution to the top 4 rows and 22.5 µL tracer + competing compound solution to the 4 bottom rows. Plates were briefly mixed on an orbital shaker and incubated for 1.5 h at room temperature. […]

FZD8 = target: T2, FZD8 (Homo sapiens, UniProt Q9H461); experiment: NanoBRET screen HiBiT-FZD8 in HEK293; conditions: FZD8
T2 construct: purchased Promega (in-house HiBiT-GPCR construct library, NanoBRET)
T2 sequence (Q9H461 28-694): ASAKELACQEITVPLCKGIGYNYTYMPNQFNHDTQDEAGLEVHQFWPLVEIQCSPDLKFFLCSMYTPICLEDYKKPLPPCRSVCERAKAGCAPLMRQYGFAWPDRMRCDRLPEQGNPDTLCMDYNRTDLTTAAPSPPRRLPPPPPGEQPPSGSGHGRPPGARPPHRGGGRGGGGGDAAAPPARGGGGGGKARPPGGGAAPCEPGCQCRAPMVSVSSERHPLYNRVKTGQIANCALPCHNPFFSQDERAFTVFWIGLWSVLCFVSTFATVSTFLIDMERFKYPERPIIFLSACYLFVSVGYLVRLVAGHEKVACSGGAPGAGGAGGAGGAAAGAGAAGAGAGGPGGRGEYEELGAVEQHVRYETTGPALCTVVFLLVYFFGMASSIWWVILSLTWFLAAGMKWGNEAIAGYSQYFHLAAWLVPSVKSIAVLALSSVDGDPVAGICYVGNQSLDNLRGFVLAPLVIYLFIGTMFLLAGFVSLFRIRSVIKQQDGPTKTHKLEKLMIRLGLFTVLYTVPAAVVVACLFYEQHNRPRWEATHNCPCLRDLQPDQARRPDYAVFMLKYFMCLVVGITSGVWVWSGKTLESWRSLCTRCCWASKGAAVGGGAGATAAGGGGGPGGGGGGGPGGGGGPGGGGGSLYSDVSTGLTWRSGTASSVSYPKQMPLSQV
Experimental: as §1, §2

HTR2A = target: T3, HTR2A (Homo sapiens, UniProt P28223); experiment: NanoBRET screen HiBiT-HTR2A in HEK293
T3 construct: purchased Promega (in-house HiBiT-GPCR construct library, NanoBRET)
T3 sequence (P28223 whole entry): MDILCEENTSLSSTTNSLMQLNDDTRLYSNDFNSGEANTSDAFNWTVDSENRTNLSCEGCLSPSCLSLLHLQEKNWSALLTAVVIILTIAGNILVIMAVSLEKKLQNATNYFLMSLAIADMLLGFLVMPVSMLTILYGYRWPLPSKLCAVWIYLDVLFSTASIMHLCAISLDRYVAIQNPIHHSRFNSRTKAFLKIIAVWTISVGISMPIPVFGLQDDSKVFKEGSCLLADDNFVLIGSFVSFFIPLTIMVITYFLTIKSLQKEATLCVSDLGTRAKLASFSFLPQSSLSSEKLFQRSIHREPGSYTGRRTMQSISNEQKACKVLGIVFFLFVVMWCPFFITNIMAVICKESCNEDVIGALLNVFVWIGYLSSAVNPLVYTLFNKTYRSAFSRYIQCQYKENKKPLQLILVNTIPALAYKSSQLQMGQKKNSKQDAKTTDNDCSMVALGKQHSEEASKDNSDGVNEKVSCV

Structure (SMILES) | NanoBRET Fold Response (TACR3; tracer 0.1μM) | NanoBRET Fold Response (TACR3; tracer 1μM) | NanoBRET Fold Response (FZD8; tracer 0.1μM) | NanoBRET Fold Response (FZD8; tracer 1μM) | NanoBRET Fold Response (HTR2A) | other results
CN1CCN(C2=Nc3cc(Cl)ccc3N(CC(=O)NCCOCCOCCOCCOCCNC(=O)CCc3ccc4n3[B-](F)(F)[N+]3=C(c5ccc[nH]5)C=CC3=C4)c3ccccc32)CC1 [Clozapine-c-2-NB590] |  |  |  |  |  | NanoBRET Fold Response (TACR3; 0.1μM tracer): 1.00; NanoBRET Fold Response (TACR3; 1μM tracer): 1.00; NanoBRET Fold Response (FZD8; 0.1μM tracer): 0.97; NanoBRET Fold Response (FZD8; 1μM tracer): 1.04
O=C(CCOCCOCCOCCOCCNC(=O)CCc1ccc2n1[B-](F)(F)[N+]1=C(c3ccc[nH]3)C=CC1=C2)NCCCN1CCN(C2=Nc3ccccc3Oc3ccc(Cl)cc32)CC1 [Loxapine-a-2-NB590] | 1.08 | 1.11 | 0.95 | 1.01 | 1.71 and 1.28 | 
COc1ccccc1N1CCN(CCCCN2C(=O)c3ccc(CNC(=O)CCOCCOCCOCCOCCNC(=O)CCc4ccc5n4[B-](F)(F)[N+]4=C(c6ccc[nH]6)C=CC4=C5)cc3C2=O)CC1 [NAN-190-2-NB590] |  |  | 0.95 | 1.03 | 0.97 | 
COc1ccccc1N1CCN(CCCCN2C(=O)c3ccc(CNC(=O)CCOCCNC(=O)c4ccc(CNC(=O)CCc5ccc6n5[B-](F)(F)[N+]5=C(c7ccc[nH]7)C=CC5=C6)cc4)cc3C2=O)CC1 [NAN-190-3-NB590] | 0.97 | 0.96 | 1.20 | 0.87 | 1.14 and 1.13 | 
O=C(CCc1ccc2n1[B-](F)(F)[N+]1=C(c3ccc[nH]3)C=CC1=C2)NCc1ccc(C(=O)NCCOCCC(=O)N[C@@H]2CC[C@@]3(O)[C@H]4Cc5ccc(O)c6c5[C@@]3(CCN4CC3CC3)[C@H]2O6)cc1 [Naltrexone-3-NB590] | 1.19 | 0.93 | 0.90 | 0.78 |  | 
Cc1cc2c(s1)Nc1ccccc1N=C2N1CCN(CCCNC(=O)CCOCCOCCOCCOCCNC(=O)CCc2ccc3n2[B-](F)(F)[N+]2=C(c4ccc[nH]4)C=CC2=C3)CC1 [Olanzapine-a-2-NB590] | 1.00 | 0.95 | 0.95 | 0.94 |  | 
O=C(CCc1ccc2n1[B-](F)(F)[N+]1=C(c3ccc[nH]3)C=CC1=C2)NCc1ccc(C(=O)NCCOCCOCCNCC(O)COc2cccc3ccccc23)cc1 (stereo not shown) [Propranolol-3-NB590] |  |  |  |  |  | NanoBRET Fold Response (TACR3; 0.1μM): 1.06; NanoBRET Fold Response (TACR3; 1μM): 0.99; NanoBRET Fold Response (FZD8; 0.1μM): 1.01; NanoBRET Fold Response (FZD8; 1μM): 1.02
O=C(CCc1ccc2n1[B-](F)(F)[N+]1=C(c3ccc[nH]3)C=CC1=C2)NCCOCCOCCNC(=O)OCCOCCN1CCN(C2=Nc3ccccc3Sc3ccccc32)CC1 [Quetiapine-a-2-NB590] | 1.04 | 0.83 | 1.02 | 1.08 |  | 
Cc1nc2n(c(=O)c1CCN1CCC(c3noc4cc(F)ccc34)CC1)CCCC2OC(=O)NCCOCCOCCOCCOCCNC(=O)CCc1ccc2n1[B-](F)(F)[N+]1=C(c3ccc[nH]3)C=CC1=C2 (stereo not shown) [Risperidone-2-NB590] | 1.04 | 1.10 | 1.02 | 1.12 |  | 
